Where “and” joins values, the source holds several entries; their conditions need not be identical. Equal entries are not always repeated.
Key:
[1] = test system: primary human hepatocytes (PHHs); settings: ref Seo et al., 2020, cited from earlier work; for BMD50: PHH CometChip data reanalyzed using PROAST; for BMDL50–BMDU50 / Potency ranking / LEC (lowest effective concentration) / BMDU/BMDL / DNA damage (ratio of %DNA in tail at highest concentration to vehicle control): PHH; for BMDL50–BMDU50: 90 % confidence interval of BMD50; for Potency ranking: rank by BMD50 among nine positive compounds; for LEC (lowest effective concentration): lowest concentration positive in comet assay
[2] = reported findings; ref References column of Table 1; cited from earlier work
[3] = test system: primary human hepatocytes (PHHs); settings: ref Seo et al., 2020, cited from earlier work; for Cytotoxicity / Max. con.: PHH; for Cytotoxicity: ATP assay, 24-h treatment; for Max. con.: maximum concentration
[4] = test system: peripheral blood and bone marrow of rhesus macaques; settings: single and repeated administration, ref Hotchkiss et al., 2008; cited from earlier work
[5] = Cytotoxicity by ATP assay; settings: rhesus macaque
[6] = test system: primary macaque hepatocytes (PMHs); test: Cytotoxicity by ATP assay; settings: for Max. con. / Cytotoxicity: PMH, 24-h treatment; for Max. con.: maximum concentration
[7] = test system: primary macaque hepatocytes (PMHs); test: CometChip assay; settings: for BMDU/BMDL / DNA damage (ratio of %DNA in tail at highest concentration to vehicle control) / LEC (lowest effective concentration) / BMDL50–BMDU50 / Potency ranking: PMH; for BMD50: PMH CometChip data, PROAST exponential model; for DNA damage (ratio of %DNA in tail at highest concentration to vehicle control) / LEC (lowest effective concentration): 24-h treatment; for LEC (lowest effective concentration): lowest concentration positive in comet assay; for BMDL50–BMDU50: 90 % confidence interval of BMD50; for Potency ranking: rank by BMD50 among nine positive compounds
[8] = reported findings; ref References column of Table 1; cited from earlier work; remark: listed apart in the source
[9] = test system: peripheral blood lymphocytes of male rhesus macaques; settings: single dose of 50 mg/kg, ref Dobrovolsky et al., 2009; cited from earlier work
Vero cells = settings: ref Gomes et al., 2021; cited from earlier work
[10] = test system: bone marrow of rhesus macaques; settings: ref Rao et al., 2005; cited from earlier work

Compound	BMD50 [1]	BMDL50–BMDU50 [1]	Potency ranking [1]	LEC (lowest effective concentration) [1]	BMDU/BMDL [1]	DNA damage (ratio of %DNA in tail at highest concentration to vehicle control) [1]	Genotoxicity assay findings in vivo [2]	Cytotoxicity [3]	Max. con. [3]	Max. con. [6]	Cytotoxicity ([6]; ATP assay)	BMDU/BMDL [7]	BMD50 [7]	DNA damage (ratio of %DNA in tail at highest concentration to vehicle control) [7]	LEC (lowest effective concentration) [7]	BMDL50–BMDU50 [7]	Potency ranking [7]	other results
O=P1(N(CCCl)CCCl)NCCCO1 (stereo not drawn) [CPA, cyclophosphamide]	248.2 µM	135 to 437 µM	8	1768 µM	3.2	++ (2 < ratio ≤ 5)	(+) for CA, MN, Pig-a, TG, and comet	+ (11–30 %)	10,000 μM	5000 µM	+++ (> 50 %)	2.3	253 µM and 253.8 µM	+++ (the ratio > 5)	937.5 µM	165 to 372 µM	7	cell viability ([3]; PHHs, 10,000 μM): 88%; micronucleated reticulocytes [4]: significantly increased; viability at 24 h, 2500 µM [5]: 50%; fold increase in % tail DNA (DNA damage) compared to the vehicle control ([7]; PMHs, highest acceptable concentration, range given for four compounds together): 6.1–8.1 fold; LEC fold higher in PHHs than in PMHs ([7]; comet assay LEC, PHH vs PMH): 2 fold
CCN(N=O)C(N)=O [ENU, N-ethyl-N-nitrosourea]	47.3 µM	25.3 to 83.5 µM	7	800 µM	3.3	+++ (the ratio > 5)	(+) for CA, MN, Pig-a, TG, comet	− (cytotoxicity of 0–10 %)	3200 µM	3200 µM	+ (11–30 %)	2.3	683 µM	+++ (the ratio > 5)	2400 µM	439 to 1030 µM	8	Genotoxicity assay findings in vitro [8]: (+) for MLA, CA, MN, Pig-a, Hprt, comet, and UDS; Pig-a and Hprt mutant frequencies [9]: significantly increased; cytotoxic effects (in words) ([6]; PMHs, ATP assay, 24-h exposure): cytotoxic effects over the same range of concentrations, but only in PMHs; BMD50 fold higher in PMHs than in PHHs (lower in PHHs) ([7]; CometChip BMD50, PMH vs PHH): 8–22 fold
Cc1c(N(C)CS(=O)(=O)[O-])c(=O)n(-c2ccccc2)n1C.[Na+] [dipyrone]																		DNA damage by comet assay (Vero cells): significant increases in DNA damage
S=P(N1CC1)(N1CC1)N1CC1 [thiotepa]																		chromosomal aberrations in bone marrow [10]: induced chromosomal aberrations

From paper PMC12412453 (Toxicology, 2021)
